Assays:
[1] = tested on: transplanted tumor of human breast cancer cell MCF-7; test: MCF-7 transplanted tumor in nude mice; conditions: MCF-7; 30 mg/kg i.g. 30 days
Procedure: (§1) Then cell concentration was adjusted to 1×10^7/ml with matrigel, then each nude mouse was inoculated subcutaneously with 0.2 ml of cells at its right armpit and recorded as the first day of inoculation. When the tumor grows to be greater than or equal to 100 mm^3, the mice were randomly divided into 11 groups with 6 mice in each group: a model group, a cyclophosphamide group, isovaleryl spiramycin I groups with doses of 25, 50 and 100 mg/kg, isovaleryl spiramycin II groups with doses of 25, 50 and 100 mg/kg, and isovaleryl spiramycin III groups with doses of 25, 50 and 100 mg/kg. Each group was continuously administered intragastrically for 30 days with a dose of 20 ml/kg. The mice were sacrificed the next day after drug withdrawal and the indicators were tested. The long diameter and short diameter of the tumor, and the body weight of each mouse were recorded every 3 days from drug administration to nude mouse sacrifice.
(§2) The body weight of the nude mice and the long diameter (a) and short diameter (b) of the transplanted tumor were measured every 3 days, and the tumor volume (v), relative tumor volume (RTV) and relative tumor proliferation rate (T/C) are calculated respectively according to the following formulas, wherein V=a×b^2/2; RTV=V/V0 (V0 is the tumor volume before administration, V is the tumor volume before sacrifice), and T/C (%)=treatment group RTV/model control group RTV×100%.
(§3) Each mouse was weighed and sacrificed. After the tumor was completely stripped off from the body of the mouse, the non-tumor tissues such as blood stains and fat were removed to weigh the tumor and calculate the tumor growth inhibition rate. The average tumor weight of each group of mice is used as an indicator of efficacy. Tumor growth inhibition rate (%)=(1−the average tumor weight of the treatment group/the average tumor weight of the model group)×100%.

[2] = tested on: transplanted tumor of human breast cancer cell MDA-MB-231; test: MDA-MB-231 transplanted tumor in nude mice; conditions: MDA-MB-231; 30 mg/kg i.g. 30 days
Procedure: as §1, §2, §3

[3] = tested on: transplanted tumor of human pancreatic cancer cell PANC-1; test: PANC-1 transplanted tumor in nude mice
Procedure: as §1, §2, §3

[4] = tested on: transplanted tumor of human thyroid cancer cell TPC-1; test: TPC-1 transplanted tumor in nude mice; conditions: dose 30 mg/kg
Procedure: as §1, with “group:” for “group: a model group, a cyclophosphamide group,”
as §2, §3

[5] = Spleen index of A549 lung cancer tumor-bearing mice

O=P1(N(CCCl)CCCl)NCCCO1 (stereo not shown) [Cyclophosphamide, cyclophosphamide, reference compound]
Body Weight (d 1) [1]: 22.03 ± 0.70 g | Body Weight (d 30) [1]: 17.77 ± 0.65 g | Inhibition Rate (tumor growth inhibition rate) [1]: 70.18% | Relative Tumor Proliferation Rate (T/C) [1]: 29.56% | Relative Tumor Volume (RTV) [1]: 5.17 ± 0.64 | Tumor Volume (d 1) [1]: 103.78 ± 12.65 mm3 | Tumor Volume (d 30) [1]: 532.62 ± 56.27 mm3 | Tumor Weight [1]: 0.81 ± 0.25*8 g | Body Weight (d 1) [2]: 21.65 ± 1.50 g | Body Weight (d 30) [2]: 19.26 ± 1.49 g | Inhibition Rate (tumor growth inhibition rate) [2]: 70.54% | Relative Tumor Proliferation Rate (T/C) [2]: 37.73% | Relative Tumor Volume (RTV) [2]: 5.89 ± 2.84 | Tumor Volume (d 1) [2]: 116.90 ± 7.18 mm3 | Tumor Volume (d 30) [2]: 691.84 ± 337.21 mm3 | Tumor Weight [2]: 0.38 ± 0.27 g | Body Weight (d 1) ([3]; PANC-1, 30 mg/kg i.g. 30 days): 22.03 ± 0.70 g | Body Weight (d 30) ([3]; PANC-1, 30 mg/kg i.g. 30 days): 17.77 ± 0.65 g | Inhibition Rate (tumor growth inhibition rate) ([3]; PANC-1, 30 mg/kg i.g. 30 days): 70.18% | Tumor Weight ([3]; PANC-1, 30 mg/kg i.g. 30 days): 0.81 ± 0.25*8 g | Relative Tumor Proliferation Rate (T/C) ([3]; PANC-1 nude mice, 30 mg/kg): 29.56% | Relative Tumor Volume (RTV) ([3]; PANC-1 nude mice, 30 mg/kg): 5.17 ± 0.64 | Tumor Volume (mm3) (d 1) ([3]; PANC-1 nude mice, 30 mg/kg, d1): 103.78 ± 12.65 mm3 | Tumor Volume (mm3) (d30) ([3]; PANC-1 nude mice, 30 mg/kg, d30): 532.62 ± 56.27 mm3 | Inhibition Rate (%) [4]: 71.29% | Relative Tumor Proliferation Rate (T/C) [4]: 37.40% | Relative Tumor Volume (RTV) [4]: 6.16 ± 2.29 | Tumor Weight [4]: 0.69 ± 0.37 g | Body Weight (g) (d1) ([4]; d 1): 21.56 ± 1.54 g | Tumor Volume (mm3) (d 1) ([4]; d 1): 117.10 ± 4.88 mm3 | Body Weight (g) (d30) ([4]; d 30): 19.16 ± 1.75 g | Tumor Volume (mm3) (d30) ([4]; d 30): 724.64 ± 285.14 mm3 | spleen index compared with the control group ([5]; A549 tumor-bearing mice, cyclophosphamide, P<0.01): significantly lower | Spleen Index (%) ([5]; dose 26 mg/kg, n = 6): 0.21 ± 0.07 %
